Experimental data: US20080213252A1, “METHODS OF TREATING ITCH” (priority 2007, published 2008)
Where no end group is shown, it is not given here.

Columns and labels:
skin of volunteers = experiment: Psychophysics: itch sensation after insertion of native or reconstituted cowhage spicules into skin; format: in vivo; details: human volunteers; for blocking of itch and other sensations evoked by mucunain-containing spicules: E64 added during reconstitution of spicules; for itch evoked by substance loaded into inactivated spicules: autoclaved spicules soaked in the substance and dried; for itch evoked by PAR4 peptide agonist incubated with inactivated spicules: spicules incubated with peptide at 10 mM
Protocol: Reconstitution of spicules—Native spicules were inactivated by autoclaving for 1 hour and reconstituted with native and recombinant mucunains in the presence or absence of cysteine protease inhibitor, E64. Typically, 50 mg of inactivated spicules were mixed with 0.4 ml of 28 μM mucunain in a 2 ml microfuge tube, vortexed, and dried in a Speed-vac for 2 hours at room temperature. These spicules were then considered as ‘reconstituted’ with the protease alone. Spicules prepared in a similar manner but with E64 added at twice the concentration of mucunain, are considered reconstituted with the protease and the inhibitor.
Psychophysics—These protocols were approved by the Yale University Human Investigation Committee. A row of 10 cowhage spicules were lightly pasted to the flattened end of a Weck-Cel surgical strip, spaced at 1 mm, and applied parallel to the surface of the skin at the mid-volar forearm. […] Every 30 sec, subjects rated the magnitude of each of three qualities of sensation: Itch, pricking/stinging, and burning using the Generalized Labeled Magnitude Scale (Bartoshuk et al. 2004) that employs appropriately placed intensity descriptors of “none”, “barely detectable”, “weak”, “moderate”, “strong”, “very strong” and, at the top of the scale, “the strongest sensation imaginable.” Voltages derived from each subject's movements of a computer mouse that controlled a cursor on a visual representation of this scale were converted to numbers between 0 and 100 and plotted for each quality at successive intervals of 30 s up to 20 min after the insertion of cowhage. Each of nine subjects received, in separate tests, five types of cowhage spicules: native cowhage spicules, heat-inactivated spicules that had been soaked in a solution of cowhage extract containing E64, or the same but without E64, and heat-inactivated spicules that had been previously soaked in a solution of recombinant mucunain containing E64, or the same but without E64. The subject and experimenter were blinded as to the type of spicule administered.
The sensory effects of mucunain was further analyzed. A method of introducing mucunain into the skin of volunteers that would mimic the approach associated with the spicules was developed. Such a method would decrease or eliminate the pain associated with using conventional needles as such nociception might interfere with the sensation of itch. Spicules are inactivated when autoclaved but appear to maintain their physical structure. Inactivated spicules were soaked in a solution containing native or recombinant mucunain and then dried. One gram of fresh spicules was stirred for one hour at 4° C. with 20 ml of 0.1 M potassium phosphate buffer (pH 4.8) and 0.9% NaCl and the liquid removed by filtration through cheesecloth. The spicules were teased from the cheesecloth and autoclaved under dry heat for 30 minutes. The mucuna extract was passed through molecular filters to remove components with molecular weights of less than 9 kD. 50 mg of the inactivated, dried spicules were then soaked in 0.05 ml of the filtered extract containing 0.07 mg of cysteine protease (as determined by non-interfering protein assay) with or without 3.5 micrograms of E-64. The spicules were subsequently dried in a Speed-Vac for 2 hours. These spicules were considered ‘reconstituted’ with one batch containing the cysteine protease and its inhibitor and another batch, the protease alone. An analogous approach was used to load spicules with papain or histamine.

mucunain = biological target: T1, mucunain (Mucuna pruriens, UniProt B2LSD2); experiment: Chromogenic substrate assay, inhibition of mucunain by E64; format: biochemical, M. pruriens; details: native mucunain 0.9 μM, recombinant mucunain 2.7 μM
T1 construct: made in house; host or cells: E. coli ER2566 (pTWIN1MUC1300) for recombinant mucunain; native mucunain extracted from M. pruriens spicules
T1 sequence (B2LSD2 99-430): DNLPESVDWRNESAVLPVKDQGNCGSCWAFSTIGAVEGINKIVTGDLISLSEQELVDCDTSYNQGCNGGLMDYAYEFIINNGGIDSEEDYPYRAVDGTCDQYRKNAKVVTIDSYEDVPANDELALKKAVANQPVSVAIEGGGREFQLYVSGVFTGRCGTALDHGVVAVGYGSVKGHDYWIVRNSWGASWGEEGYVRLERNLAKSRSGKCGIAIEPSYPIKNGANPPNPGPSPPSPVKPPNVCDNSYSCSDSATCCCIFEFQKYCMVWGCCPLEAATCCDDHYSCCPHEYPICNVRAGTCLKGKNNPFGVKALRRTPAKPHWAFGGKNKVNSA
Source text: Papain served as a control cysteine protease.

PAR4 = experiment: PAR activation by cytoplasmic calcium release, ratiometric Fura-2 imaging, PAR4 transfected HeLa cells; format: cell-based, human; details: for calcium influx in PAR4 transfected HeLa cells: Fura-2 340:380 ratiometric imaging
Protocol: PAR activation observed by cytoplasmic calcium release—The four human PAR cDNAs were obtained from commercial sources and cloned into the pcDNA3.1 (−) vector (Invitrogen). HeLa cells were transfected with 10 μg of vector cDNA using Lipofectamine 2000 (Invitrogen) and cultured for two days in 96-well glass bottom plates at 30,000 cells/well. Cells were loaded with Fura-2 as follows. The medium was aspirated and replaced with 100 μl of complete DMEM containing 2 μM Fura-2 (Invitrogen) and kept at room temperature in the dark for 1 hr. The medium was again aspirated and each well received 90 μl of HEPES buffered saline (20 mM HEPES, 115 mM NaCl, 5.4 mM KCl, 2 mM CaCl2, 0.8 mM MgCl2, 13.8 mM glucose, pH 7.4). Plates were observed using a Zeiss Axiovert 200M microscope equipped with a filter wheel for monitoring excitation at 340 and 380 nm. Axiovision software, version 4.6 was used to analyze ratiometric calcium imaging of the cells. Ten μl of protease was applied approximately 20 seconds after the start of excitation. Images were taken every 5 seconds, beginning at time zero, for 3 minutes. The software was used to analyze the 37 images taken during each 3-minute period.

Row | Molecule | itch evoked by substance loaded into inactivated spicules (skin of volunteers) | itch evoked by PAR4 peptide agonist incubated with inactivated spicules (skin of volunteers) | calcium influx in PAR4 transfected HeLa cells (PAR4) | also measured
1 | CC(C)C[C@H](NC(=O)[C@H]1O[C@@H]1C(=O)O)C(=O)NCCCCNC(=N)N (relative stereo) [E64, 1-[N-[(L-3-trans-carboxyoxirane-2-carbonyl)-L-leucyl]amino]-4-guanidinobutane] |  |  |  | blocking of itch and other sensations evoked by mucunain-containing spicules (skin of volunteers): blocked all sensations; blocking of itch and other sensations evoked by mucunain-containing spicules (skin of volunteers; listed as E-64): effective in preventing itch; blocking of Z-FR-pNA cleavage by mucunain (mucunain): blocked; blocking of protease-induced PAR4 activation (PAR4; native mucunain, recombinant mucunain and papain in the presence of E64): blocked
2 | NCCc1c[nH]cn1 [histamine] | produced itch |  |  | 
3 | AYPGKF-NH2 |  | elicited itch | induced calcium influx | 
4 | GYPGKF-NH2 [ID; No. 28] |  | elicited itch |  | 
5 | bromelain | produced itch |  | induced calcium influx | 
6 | ficin |  |  | induced calcium influx | 
